Measured values from US12479831B2, “Substituted N(-methyl-D3)pyridazine-3-carboxamide or M-(methyl-D3)-nicotinamide compounds as IL-12, IL-23 and/or IFNα modulators” (BRISTOL-MYERS SQUIBB COMPANY, priority 2020, dated 2025).

The compounds below were run on IFNα-Induced STAT Phosphorylation in Human Whole Blood (assay: IFNα-Induced STAT Phosphorylation in Human Whole Blood). Conditions: 1 h incubation with compound, 1000 U/mL recombinant human IFNα A/D for 15 min, pSTAT5 (pY694) median fluorescence intensity in CD3 positive population, read-out: hWB IC50.
Assay type: cell-based
`[2H]C([2H])([2H])NC(=O)c1nnc(NC(=O)C2CC2)cc1Nc1cccc(-c2cnc(C(=O)N3CCC3)cn2)c1OC` [Example 40, 4-((3-(5-(azetidine-1-carbonyl)pyrazin-2-yl)-2-methoxyphenyl)amino)-6-(cyclopropanecarboxamido)-N-(methyl-d3)pyridazine-3-carboxamide] showed an IC50 of 360 nM. For `[2H]C([2H])([2H])NC(=O)c1nnc(NC(=O)C2CC2)cc1Nc1cccc(-c2cnc(C(C)(O)CF)cn2)c1OC` (centres unmarked) [Example 35, 6-(cyclopropanecarboxamido)-4-((3-(5-(1-fluoro-2-hydroxypropan-2-yl)pyrazin-2-yl)-2-methoxyphenyl)amino)-N-(methyl-d3)pyridazine-3-carboxamide], the IC50 was 107 nM. `[2H]C([2H])([2H])NC(=O)c1nnc(Nc2cn(C)nn2)cc1Nc1cccc(-c2ncc(F)cn2)c1OC` [Example 91, 4-((3-(5-fluoropyrimidin-2-yl)-2-methoxyphenyl)amino)-N-(methyl-d3)-6-((1-methyl-1H-1,2,3-triazol-4-yl)amino)pyridazine-3-carboxamide] gave an IC50 of 167 nM. Compound `[2H]C([2H])([2H])NC(=O)c1nnc(NC(=O)C2CC2)cc1Nc1cccc(-c2ncc(C(C)(O)CF)cn2)c1OC` (centres unmarked) [Example 26, 6-(cyclopropanecarboxamido)-4-((3-(5-(1-fluoro-2-hydroxypropan-2-yl)pyrimidin-2-yl)-2-methoxyphenyl)amino)-N-(methyl-d3)pyridazine-3-carboxamide] has an IC50 of 16 nM. `[2H]C([2H])([2H])NC(=O)c1cnc(Nc2ccn(CC)n2)cc1Nc1cccc(-c2ncc(F)cn2)c1OC` [Example 67, 6-((1-ethyl-1H-pyrazol-3-yl)amino)-4-((3-(5-fluoropyrimidin-2-yl)-2-methoxyphenyl)amino)-N-(methyl-d3)nicotinamide] gave an IC50 of 87 nM. Work on `[2H]C([2H])([2H])NC(=O)c1nnc(Nc2cn(CC)nn2)cc1Nc1cc(F)cc(-c2ncccn2)c1OC` [Example 92, 6-((1-ethyl-1H-1,2,3-triazol-4-yl)amino)-4-((5-fluoro-2-methoxy-3-(pyrimidin-2-yl)phenyl)amino)-N-(methyl-d3)pyridazine-3-carboxamide] yielded an IC50 of 136 nM. `[2H]C([2H])([2H])NC(=O)c1nnc(Nc2ccc(C(C)(C)O)cn2)cc1Nc1cc(F)cc(-c2ncccn2)c1OC` [Example 104, 4-((5-fluoro-2-methoxy-3-(pyrimidin-2-yl)phenyl)amino)-6-((5-(2-hydroxypropan-2-yl)pyridin-2-yl)amino)-N-(methyl-d3)pyridazine-3-carboxamide] gave an IC50 of 41 nM. Work on `[2H]C([2H])([2H])NC(=O)c1nnc(Nc2cnn(CC)n2)cc1Nc1cccc(-c2ncccn2)c1OC` [Example 86, 6-((2-ethyl-2H-1,2,3-triazol-4-yl)amino)-4-((2-methoxy-3-(pyrimidin-2-yl)phenyl)amino)-N-(methyl-d3)pyridazine-3-carboxamide] yielded an IC50 of 96 nM. Work on `[2H]C([2H])([2H])NC(=O)c1nnc(Nc2cc(C(C)(C)O)n(C)n2)cc1Nc1cccc(-c2ncccn2)c1OC` [Example 81, 6-((5-(2-hydroxypropan-2-yl)-1-methyl-1H-pyrazol-3-yl)amino)-4-((2-methoxy-3-(pyrimidin-2-yl)phenyl)amino)-N-(methyl-d3)pyridazine-3-carboxamide] yielded an IC50 of 14 nM. Work on `[2H]C([2H])([2H])NC(=O)c1nnc(NC(=O)C2CC2)cc1Nc1cccc(-c2cnc(C(=O)NC)cn2)c1OC` [Example 39, 6-(cyclopropanecarboxamido)-4-((2-methoxy-3-(5-(methylcarbamoyl)pyrazin-2-yl)phenyl)amino)-N-(methyl-d3)pyridazine-3-carboxamide] yielded an IC50 of 218 nM. `[2H]C([2H])([2H])NC(=O)c1nnc(Nc2cc3n(n2)CCN(C2CC2)C3=O)cc1Nc1cccc(-c2ncc(F)cn2)c1OC` [Example 109, 6-((5-cyclopropyl-4-oxo-4,5,6,7-tetrahydropyrazolo[1,5-a]pyrazin-2-yl)amino)-4-((3-(5-fluoropyrimidin-2-yl)-2-methoxyphenyl)amino)-N-(methyl-d3)pyridazine-3-carboxamide] showed an IC50 of 262 nM.
